{
  "source": "patent US20170157251A1",
  "about": "“Bi-Specific Monovalent Diabodies That are Capable of Binding CD19 and CD3, and Uses Thereof” (MacroGenics, Inc., priority 2015, published 2017)",
  "key": {"Raji/GF target cells": {"system": "Raji/GF target cells", "experiment": "DART-A-mediated redirected killing of Raji/GF cells with concomitant ibrutinib", "assay_type": "cell-based, human", "protocol": "Suspension-cultured CD19-positive Raji/GF cells were harvested and washed with 1×DPBS or assay media containing RPMI 1640 without phenol red, 10% FBS, and pen/strep. Cell concentration and viability were measured by Trypan Blue dye exclusion using a Beckman Coulter Vi-Cell counter. The target cells were diluted in assay media to a cell density of 2×10^5 cells/mL. 50 μL of the diluted cell suspension was added to a 96-well, flat-bottom NUNCLON DELTA white plate (Thermo Scientific Cat #136101). For each treatment, duplicate wells were included. Human T cells, following treatment with ibrutinib for various times as described above, were collected and washed 3 times with assay media. After the final wash, the T cells were counted and resuspended in the assay medium at a cell density of 1×10^6 cells/mL and 100 μL were added to each well. […] The plates were incubated at room temperature in the dark for 10 minutes and then luciferase intensity was measured using a Victor2 Multilabel plate reader (Perkin Elmer #1420-014) with luciferase relative light unit (RLU) as the read-out. […] The percent cytotoxicity values were calculated as described below and concentration-response curves were generated using GraphPad Prism 6 software with curve fitting by the sigmoidal dose-response function. […]"}, "human PBMCs": {"system": "human PBMCs", "experiment": "T-cell activation and cytokine release with DART-A-mediated B-cell depletion in human PBMCs in the presence of ibrutinib", "assay_type": "cell-based", "text": "(§1) An autologous B-cell depletion assay with human PBMCs, which comprise both target cells (CD19+ B cells) and effector cells (CD3+ T cells) in a physiologically relevant cellular context, was utilized to evaluate the effect of ibrutinib on DART-A-mediated primary B-cell depletion, concomitant T-cell activation, and cytokine release."}, "[1]": {"system": "human CD4+ and CD8+ T cells", "experiment": "DART-A-mediated T cell activation (CD25) with Raji/GF cells and concomitant ibrutinib", "assay_type": "cell-based", "protocol": "Assays were conducted as described above, except that: 1) fresh human T cells were substituted for ibrutinib pretreated human T cells; 2) 50 μL of T cells containing 200,000 cells were added into each well; and 3) 50 μL of ibrutinib solution at 10, 3, 1, 0.2, or 0 μM were added into the assay plates. […] The ibrutinib solutions were prepared by diluting a 1000 μM stock solution in 100% DMSO in assay medium with DMSO concentration being diluted to 1% DMSO. The final ibrutinib concentrations on the plate were 2500, 750, 250, 50, or 0 nM and the final DMSO concentration was 0.25%. Plates were incubated and processed as described previously.\nHowever, the presence of ibrutinib inhibited DART-A-mediated CD25 upregulation in a concentration-dependent manner."}, "human T cells [2]": {"system": "human T cells", "experiment": "Ibrutinib alone on ex vivo T-cell activation (CD25)", "assay_type": "cell-based", "protocol": "(§2) Normal human T cells (100,000/well) were treated with increasing concentrations of ibrutinib (0 nM, 25 nM, 250 nM, 750 nM or 2500 nM) for 0, 24, 48, and 72 hours under ex vivo T-cell proliferation/activation conditions, which contained T-cell activator anti-CD3/CD28 Dynabeads and rhIL-2.\nThe percentages of CD25 in CD4+ and CD8+ T cell subsets were determined by flow cytometry. The effect of ibrutinib treatment alone on upregulation of CD25, a T-cell activation marker, was also evaluated on T cells activated with anti-CD3/CD28 and rhIL2."}, "[3]": {"settings": "once daily oral dose of 560 mg, cited from earlier work"}, "human T cells [4]": {"system": "human T cells", "experiment": "Ibrutinib alone on ex vivo T-cell proliferation (CellTiter-Glo)", "assay_type": "cell-based", "settings": "25, 250, 750 or 2500 nM, up to 3 days", "protocol": "as §2\nCell viability was determined using the CellTiter-Glo® Luminescent Viability Assay with relative light units (RLU) proportional to the number of viable cells."}, "Raji/GF cells": {"system": "Raji/GF cells", "experiment": "DART-A-mediated redirected killing of Raji/GF cells using ibrutinib-pretreated T cells (luciferase)", "assay_type": "cell-based, human", "settings": "T cells pretreated with 2500 nM ibrutinib", "protocol": "Suspension-cultured CD19-positive Raji/GF cells were harvested and washed with 1×DPBS or assay media containing RPMI 1640 without phenol red, 10% FBS, and pen/strep. Cell concentration and viability were measured by Trypan Blue dye exclusion using a Beckman Coulter Vi-Cell counter. The target cells were diluted in assay media to a cell density of 2×10^5 cells/mL. 50 μL of the diluted cell suspension was added to a 96-well, flat-bottom NUNCLON DELTA white plate (Thermo Scientific Cat #136101). For each treatment, duplicate wells were included. Human T cells, following treatment with ibrutinib for various times as described above, were collected and washed 3 times with assay media. After the final wash, the T cells were counted and resuspended in the assay medium at a cell density of 1×10^6 cells/mL and 100 μL were added to each well. […] The plates were incubated at room temperature in the dark for 10 minutes and then luciferase intensity was measured using a Victor2 Multilabel plate reader (Perkin Elmer #1420-014) with luciferase relative light unit (RLU) as the read-out. […] The percent cytotoxicity values were calculated as described below and concentration-response curves were generated using GraphPad Prism 6 software with curve fitting by the sigmoidal dose-response function.\nSpecific cell lysis was calculated from RLU data using the following formula: […]"}, "human T cells [5]": {"system": "human T cells", "experiment": "Ibrutinib alone on ex vivo T-cell cytokine production (ELISA)", "assay_type": "cell-based", "protocol": "as §2\nProduction of IFN-γ, TNF-α, and IL-10 was measured by ELISA. […] Because of the minimal IL-6 cytokine production under the ex vivo T-cell proliferation/activation conditions tested, evaluation of ibrutinib's effect on IL-6 induction was not feasible."}, "primary B-cell (CD20+)": {"system": "primary B-cell (CD20+)", "experiment": "DART-A-mediated autologous B-cell depletion with human PBMCs in the presence of ibrutinib", "assay_type": "cell-based", "text": "as §1"}, "CD3": {"biological_target": "CD3 (Homo sapiens, UniProt P07766)", "sequence (P07766 23-207)": "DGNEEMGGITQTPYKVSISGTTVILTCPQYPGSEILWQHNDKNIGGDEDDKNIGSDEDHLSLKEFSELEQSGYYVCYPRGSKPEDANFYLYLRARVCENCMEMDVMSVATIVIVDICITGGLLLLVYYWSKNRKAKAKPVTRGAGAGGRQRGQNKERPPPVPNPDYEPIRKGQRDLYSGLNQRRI", "sequence (P04234 22-171 partner)": "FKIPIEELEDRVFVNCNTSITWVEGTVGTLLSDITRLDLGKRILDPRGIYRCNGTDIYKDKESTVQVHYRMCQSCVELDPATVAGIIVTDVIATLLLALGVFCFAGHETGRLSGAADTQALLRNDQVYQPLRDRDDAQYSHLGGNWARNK", "sequence (P09693 23-182 partner)": "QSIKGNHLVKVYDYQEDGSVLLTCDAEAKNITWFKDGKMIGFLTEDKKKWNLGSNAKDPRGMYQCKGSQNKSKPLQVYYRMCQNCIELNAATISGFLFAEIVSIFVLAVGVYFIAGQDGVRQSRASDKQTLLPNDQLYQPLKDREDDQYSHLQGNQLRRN", "settings": "reported; read-out: affinity for CD3; cited from earlier work"}, "target cell": {"system": "target cell", "settings": "reported; cited from earlier work"}, "CD19": {"biological_target": "T1, CD19 (Homo sapiens, UniProt P15391)", "T1 sequence (P15391 20-556)": "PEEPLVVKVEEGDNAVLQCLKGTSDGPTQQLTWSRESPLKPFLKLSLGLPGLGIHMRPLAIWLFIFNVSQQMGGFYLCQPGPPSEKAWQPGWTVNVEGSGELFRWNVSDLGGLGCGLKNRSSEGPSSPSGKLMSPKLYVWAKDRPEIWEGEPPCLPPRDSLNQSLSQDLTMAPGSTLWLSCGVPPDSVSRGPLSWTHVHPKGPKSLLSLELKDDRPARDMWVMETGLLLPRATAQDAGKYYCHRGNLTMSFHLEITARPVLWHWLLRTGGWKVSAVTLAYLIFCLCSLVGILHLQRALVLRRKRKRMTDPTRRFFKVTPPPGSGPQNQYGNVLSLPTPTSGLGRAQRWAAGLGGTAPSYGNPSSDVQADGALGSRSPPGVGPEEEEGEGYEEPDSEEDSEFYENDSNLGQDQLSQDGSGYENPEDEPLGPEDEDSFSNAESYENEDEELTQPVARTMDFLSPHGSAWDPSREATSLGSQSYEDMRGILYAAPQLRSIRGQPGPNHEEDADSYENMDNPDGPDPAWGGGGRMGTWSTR", "settings": "reported; read-out: affinity for CD19; cited from earlier work"}, "indolent lymphomas": {"system": "indolent lymphomas", "settings": "retreatment with single agent; cited from earlier work"}},
  "data": [
    {"compound": "C=CC(=O)N1CCC[C@@H](n2nc(-c3ccc(Oc4ccccc4)cc3)c3c(N)ncnc32)C1", "note": "[ibrutinib, 1-[(3R)-3-[4-Amino-3-(4-phenoxyphenyl)-1H-pyrazolo[3,4-d]pyrimidin-1-yl]piperidin-1-yl]prop-2-en-1-one, reference compound]", "values": [
      {"measurement": "increase of DART-A EC50 values", "setting": "Raji/GF target cells; ibrutinib 750 nM, both time points", "value": "8-9 fold"},
      {"measurement": "inhibitory effect on DART-A-mediated redirected T-cell killing", "setting": "Raji/GF target cells; ibrutinib ≦250 nM", "value": "no or minimal inhibitory effect"},
      {"measurement": "inhibition of concomitant T-cell activation and cytokine production", "setting": "human PBMCs; ibrutinib 250 nM", "value": "partial inhibition"},
      {"measurement": "inhibition of concomitant T-cell activation and cytokine production", "setting": "human PBMCs; ibrutinib 2500 nM", "value": "nearly complete inhibition"},
      {"measurement": "Emax at 0.75 µM", "setting": "[1]; ibrutinib 750 nM, read-out: inhibition in the maximal levels (Emax) of T-cell activation", "value": "≤ 36", "unit": "%"},
      {"measurement": "Emax at 2.5 µM", "setting": "[1]; ibrutinib 2500 nM, read-out: inhibition in the maximal levels (Emax) of T-cell activation", "value": "≤ 63", "unit": "%"},
      {"measurement": "Emax", "setting": "[1]; ibrutinib ≦250 nm, vs untreated group, read-out: inhibition in the maximal levels (Emax) of T cell activation (% CD25)", "value": "< 20", "unit": "%"},
      {"measurement": "impact on CD25+ upregulation", "setting": "human T cells [2]; ibrutinib 750 nM", "value": "some modest impact"},
      {"measurement": "reduction in the number of CD4+/CD25+ T cells", "setting": "human T cells [2]; ibrutinib 2500 nM, 24 hour", "value": "~60", "unit": "%"},
      {"measurement": "reduction in the number of CD8+/CD25+ T cells", "setting": "human T cells [2]; ibrutinib 2500 nM, 24 hour", "value": "~95", "unit": "%"},
      {"measurement": "inhibition of CD25 upregulation", "setting": "human T cells [2]; ibrutinib ≦250 nM", "value": "minimal or no inhibition"},
      {"measurement": "minimum (Ctrough) serum concentration", "setting": "[3]", "value": "25 to 50", "unit": "nM"},
      {"measurement": "Cmax", "setting": "[3]; read-out: maximum (Cmax) serum concentration", "value": "~250", "unit": "nM"},
      {"measurement": "ability of T cells to respond to anti-CD3/CD28 and rhIL-2 stimulation (cell numbers)", "setting": "human T cells [4]", "value": "had no impact"},
      {"measurement": "increase in DART-A EC50 value", "setting": "Raji/GF cells", "value": "~3", "unit": "fold"},
      {"measurement": "IFN-γ", "setting": "human T cells [5]; 2500 nM, all time points", "value": "a small reduction in IFN-γ"},
      {"measurement": "IL-10 and TNF-α production", "setting": "human T cells [5]; 2500 nM, from 24 hours", "value": "decreased IL-10 and TNF-α production"},
      {"measurement": "impact on TNF-α, IL-10 and IFN-γ release", "setting": "human T cells [5]; up to 750 nM, up to 72 hours", "value": "no or minimal impact"},
      {"measurement": "inhibition at 0.75 µM", "setting": "primary B-cell (CD20+); Homo sapiens, B-cell, ibrutinib 750 nM", "value": 8, "unit": "%"},
      {"measurement": "inhibition at 2.5 µM", "setting": "primary B-cell (CD20+); Homo sapiens, B-cell, ibrutinib 2500 nM", "value": 60, "unit": "%"},
      {"measurement": "inhibition of DART-A-mediated primary B-cell (CD20+) depletion", "setting": "primary B-cell (CD20+); ibrutinib ≦250 nM", "value": "minimal to no inhibition"}
    ]},
    {"compound": "Blinatumomab: bi-specific scFv-CD19×CD3 BiTE", "values": [
      {"measurement": "Kd", "setting": "CD3", "value": "~100", "unit": "nM"},
      {"measurement": "EC50 for target cell lysis in vitro", "setting": "target cell", "value": "0.01 to 0.1", "unit": "ng/mL"},
      {"measurement": "Kd", "setting": "CD19", "value": "~1", "unit": "nM"}
    ]},
    {"compound": "rituximab: anti-CD20 monoclonal antibody", "values": [
      {"measurement": "response rate", "setting": "indolent lymphomas", "value": 40, "unit": "%"}
    ]}
  ]
}
